Activity calls are given as the source filed them. The rule behind the calls is not given here.

Consider three molecules from ChEMBL document CHEMBL3871307, “Discovery of Chromane Propionic Acid Analogues as Selective Agonists of GPR120 with in Vivo Activity in Rodents” (ACS Med Chem Lett, 2017).

In data set [1] the target is T1, Free fatty acid receptor 4 (Homo sapiens, UniProt Q5NUL3).
T1 sequence (Q5NUL3 whole entry): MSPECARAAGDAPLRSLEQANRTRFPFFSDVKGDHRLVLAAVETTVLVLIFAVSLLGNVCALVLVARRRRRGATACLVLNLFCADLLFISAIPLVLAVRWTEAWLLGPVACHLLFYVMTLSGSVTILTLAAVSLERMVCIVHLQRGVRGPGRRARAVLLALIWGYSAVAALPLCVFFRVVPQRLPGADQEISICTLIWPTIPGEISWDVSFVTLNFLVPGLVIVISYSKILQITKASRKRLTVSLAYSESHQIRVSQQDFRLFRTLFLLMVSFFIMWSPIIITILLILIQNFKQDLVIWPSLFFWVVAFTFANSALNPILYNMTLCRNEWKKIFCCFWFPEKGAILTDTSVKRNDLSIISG
The experiment in a line: Agonist activity at human GPR120 short isoform expressed in CHOK1 cells assessed as increase in IP1 accumulation after 60 mins by HTRF assay. The data set is classed as functional, cell-based, CHO-K1.

Data set [2] concerns the target T1, Free fatty acid receptor 4. Put plainly: Agonist activity at human GPR120 short isoform expressed in CHOK1 cells assessed as beta-arrestin recruitment after 90 mins by luminescence assay. The data set is classed as cell-based, CHO-K1.
Data set [3] has as its target T2, Free fatty acid receptor 4 (Homo sapiens) (UniProt Q5NUL3).
T2 sequence (whole entry): T1 sequence (Q5NUL3 whole entry)
Put plainly: Agonist activity at human GPR120 short isoform expressed in CHOK1 cells assessed as increase in IP1 accumulation at 10 uM after 60 mins by HTRF assay. The data set is classed as functional, cell-based. To be noted: CHO-K1. (Time-resolved FRET reads energy transfer from a long-lived donor to a nearby acceptor.)

In data set [4] the target is Free fatty acid receptor 1 (Homo sapiens, UniProt O14842). The experiment in a line: Agonist activity at human GPR40 expressed in HEK293 cells assessed as increase in IP1 accumulation after 60 mins by HTRF assay. The data set is classed as functional, cell-based.
Data set [5] is described as follows: Clearance in rat plasma at 0.1 mg/kg administered as iv casette dose by LC/MS/MS analysis. In kind it is ADME, organism-based.
A short description of data set [6]: Terminal half life in rat plasma at 0.1 mg/kg administered as iv casette dose by LC/MS/MS analysis. In kind it is ADME, organism-based. To be noted: read-out: beta t1/2 (converted).
Data set [7] can be described thus: Volume of distribution at steady state in rat plasma at 0.1 mg/kg administered as iv casette dose by LC/MS/MS analysis. The data set is classed as ADME, organism-based. To be noted: read-out: Vdss.
The nature of data set [8]: Protein binding in rat plasma at 0.1 mg/kg administered as iv casette dose by LC/MS/MS analysis. In kind it is ADME, organism-based. To be noted: read-out: PPB (converted).
The nature of data set [9]: Intrinsic clearance in rat plasma at 0.1 mg/kg administered as iv casette dose by LC/MS/MS analysis. In kind it is ADME, organism-based. To be noted: in vivo.
Data set [10] has as its system Mus musculus. Put plainly: In vivo agonist activity at GPR120 in wild type C57BL/6 transverse aortic constriction mouse assessed as glucose lowering effect at 150 mg/kg, po via gavage pretreated for 60 mins followed by dextrose challenge measured up to 120 mins post glucose challenge by OGTT. The data set is classed as functional, organism-based.
Data set [11] is described as follows: Plasma concentration in wild type C57BL/6 transverse aortic constriction mouse harboring GPR120 at 150 mg/kg, po measured at 3 hrs. The data set is classed as ADME, organism-based. The following applies: C57BL/6, mouse.
Data set [12] can be described thus: Plasma concentration in GPR120 knockout C57BL/6 transverse aortic constriction mouse at 150 mg/kg, po measured at 3 hrs. The following applies: C57BL/6, mouse. The data set is classed as ADME, organism-based.
Data set [13] deals with T3, Free fatty acid receptor 4 (Mus musculus, UniProt Q7TMA4).
T3 sequence (Q7TMA4 whole entry): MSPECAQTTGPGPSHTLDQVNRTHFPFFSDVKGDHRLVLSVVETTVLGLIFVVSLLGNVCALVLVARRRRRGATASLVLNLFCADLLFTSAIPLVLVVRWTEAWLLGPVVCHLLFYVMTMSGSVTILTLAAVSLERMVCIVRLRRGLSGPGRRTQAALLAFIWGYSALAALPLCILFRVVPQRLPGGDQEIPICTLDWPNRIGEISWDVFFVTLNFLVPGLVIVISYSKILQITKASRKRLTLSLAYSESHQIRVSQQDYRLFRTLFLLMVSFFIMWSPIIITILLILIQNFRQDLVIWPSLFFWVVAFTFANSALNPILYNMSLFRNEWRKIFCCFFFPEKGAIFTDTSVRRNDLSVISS
Put plainly: (§1) Agonist activity at mouse GPR120 expressed in CHOK1 cells assessed as increase in IP1 accumulation after 60 mins by HTRF assay. In kind it is functional, cell-based, CHO-K1.

Data set [14] concerns the target T3, Free fatty acid receptor 4. Put plainly: Agonist activity at mouse GPR120 expressed in human U2OS cells assessed as beta-arrestin recruitment after 90 mins by luminescence assay. In kind it is cell-based. On the technique in general: Arrestin recruitment assays detect the binding of arrestin to an activated receptor.
In data set [15] the target is Free fatty acid receptor 1 (Mus musculus, UniProt Q76JU9). The experiment in a line: Agonist activity at mouse GPR40 assessed as increase in IP1 accumulation after 60 mins by HTRF assay. The data set is classed as functional.
The subject of data set [16] is Mus musculus. The experiment in a line: Glucose lowering effect in C57BL/6 transverse aortic constriction mouse assessed as reduction in blood glucose at 30 mg/kg, po pretreated for 60 mins as single dose via gavage followed by dextrose challenge measured up to 120 mins post glucose challenge by OGTT. In kind it is functional, organism-based.
Data set [17] is described as follows: Plasma concentration in C57BL/6 transverse aortic constriction mouse at 30 mg/kg, po via gavage measured at 3 hrs. To be noted: C57BL/6, mouse. In kind it is ADME, organism-based.
Data set [18] concerns Mus musculus. Put plainly: Glucose lowering effect in C57BL/6 transverse aortic constriction mouse assessed as reduction in blood glucose at 100 mg/kg, po pretreated for 60 mins as single dose via gavage followed by dextrose challenge measured up to 120 mins post glucose challenge by OGTT. The data set is classed as functional, organism-based.
The nature of data set [19]: Plasma concentration in C57BL/6 transverse aortic constriction mouse at 100 mg/kg, po via gavage measured at 3 hrs. The data set is classed as ADME, organism-based. The following applies: C57BL/6, mouse.
Data set [20] deals with T4, Free fatty acid receptor 4 (Mus musculus) (UniProt Q7TMA4).
T4 sequence (whole entry): T3 sequence (Q7TMA4 whole entry)
Described as §1. The data set is classed as functional, cell-based. The following applies: CHO-K1.

Chain of Free fatty acid receptor 1 (Homo sapiens, UniProt O14842) (O14842 whole entry): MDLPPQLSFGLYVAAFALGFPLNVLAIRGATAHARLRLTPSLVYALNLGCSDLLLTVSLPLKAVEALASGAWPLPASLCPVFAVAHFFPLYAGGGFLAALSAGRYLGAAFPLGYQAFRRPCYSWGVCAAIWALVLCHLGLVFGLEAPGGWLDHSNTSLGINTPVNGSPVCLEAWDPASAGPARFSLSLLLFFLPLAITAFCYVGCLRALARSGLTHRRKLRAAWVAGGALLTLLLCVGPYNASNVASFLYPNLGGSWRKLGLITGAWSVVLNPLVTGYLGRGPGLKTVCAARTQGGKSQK
Chain of Free fatty acid receptor 1 (Mus musculus, UniProt Q76JU9) (Q76JU9 whole entry): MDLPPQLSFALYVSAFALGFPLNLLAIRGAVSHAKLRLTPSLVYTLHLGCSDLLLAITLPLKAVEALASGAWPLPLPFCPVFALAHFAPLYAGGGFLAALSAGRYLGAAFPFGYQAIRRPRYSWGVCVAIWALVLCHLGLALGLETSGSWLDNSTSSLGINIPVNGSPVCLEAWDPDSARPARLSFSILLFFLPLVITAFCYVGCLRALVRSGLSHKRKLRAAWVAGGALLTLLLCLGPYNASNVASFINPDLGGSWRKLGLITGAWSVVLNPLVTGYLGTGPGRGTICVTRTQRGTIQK

For `COc1cc(O[C@H]2C[C@H](OC)C2)nc(-c2ccc3c(c2)CC[C@H](CCC(=O)O)O3)c1F`, the EC50 (usually the concentration at which the effect is half-maximal) in data set [1] was 0.014 µM; in data set [2] it was 0.005 µM; in data set [4], greater than 10 µM; in data set [13], 0.0056 µM; in [14], 0.0046 µM; in data set [15] it was greater than 10 µM. Moreover, in data set [3], the Activity is greater than 50%. Moreover, in [5], the clearance (in general, a measure of how efficiently the substance is removed, as volume per time) was found to be 3.4 mL/min/kg. Besides, the half-life in data set [6] is 2.4 h. Moreover, the Vd in [7] was 0.49 L/kg. In data set [8], the fraction unbound is 0.0032. For the same molecule, the CL in data set [9] was determined as 760 mL/min/kg. The result in the data set on Mus musculus [10] was Active. For the same molecule, the concentration at 3 h in data set [11] turned out to be 33.5 µM; in [12], 27.6 µM.

In the case of `CO[C@H]1C[C@H](Oc2cc(F)c(F)c(-c3ccc4c(c3)CC[C@H]([C@@H]3C[C@H]3C(=O)O)O4)c2)C1`, the EC50 in data set [1] was 0.045 µM; in data set [2], 0.017 µM; in data set [4], greater than 10 µM. Moreover, the Activity in data set [3] is greater than 50%. Moreover, in the data set on Mus musculus [16], the result was Active. The concentration at 3 h in data set [17] turned out to be 37.4 µM.

As for `Fc1ccc(OC2CCC2)cc1-c1ccc2c(c1)CC[C@H](CCc1nnn[nH]1)O2`, the values for the EC50 in [1], in [2] and in data set [4] were 0.22 µM, 0.084 µM and greater than 10 µM, respectively. The Activity in data set [3] came out at 44%. Moreover, the result (in the data set on Mus musculus [18]; in data set [20]) was Active. In data set [19], this molecule yielded a concentration at 3 h of 40.6 µM.
